{"source": "ChEMBL document CHEMBL4311992", "about": "“Discovery of 3-(((9H-purin-6-yl)amino)methyl)-4,6-dimethylpyridin-2(1H)-one derivatives as novel tubulin polymerization inhibitors for treatment of cancer” (Eur J Med Chem, 2019)", "key": {"[1]": {"molecular_target": "5'-AMP-activated protein kinase catalytic subunit alpha-2 (Homo sapiens) (UniProt P54646)", "assay": "Inhibition of recombinant full-length human AMPKalpha2 assessed as residual activity at 10 uM using AMARAASAAALARRR as substrate measured after 40 mins in presence of [gamma33P]ATP by scintillation counting method"}, "[2]": {"molecular_target": "Serine/threonine-protein kinase NLK (Homo sapiens) (UniProt Q9UBE8)", "assay": "Inhibition of recombinant human NLK (121 to end residues) assessed as residual activity at 10 uM using myelin basic protein as substrate measured after 40 mins in presence of [gamma33P]ATP by scintillation counting method"}, "[3]": {"molecular_target": "Serine/threonine-protein kinase pim-3 (Homo sapiens) (UniProt Q86V86)", "assay": "Inhibition of recombinant human Pim3 (2 to end residues) assessed as residual activity at 10 uM using RSRHSSYPAGT as substrate measured after 40 mins in presence of [gamma33P]ATP by scintillation counting method"}, "[4]": {"test_system": "Angiopoietin-1 receptor (Homo sapiens), Q02763 [Q939H,Q940H,R849W]", "assay": "Inhibition of human Tie2 Q939H/Q940H/R849W mutant (771 to end residues) using EFPIYDFLPAKKK as substrate measured after 40 mins in presence of [gamma33P]ATP by scintillation counting method", "parameters": "scale not given: the % may be the effect or the level left"}, "[5]": {"test_system": "TGF-beta receptor type-1 (Homo sapiens), P36897 [T204D]", "assay": "Inhibition of human TGFBR1 T204D mutant (200 to end residues) using casein as substrate measured after 40 mins in presence of [gamma33P]ATP by scintillation counting method", "parameters": "scale not given: the % may be the effect or the level left"}, "[6]": {"test_system": "Mast/stem cell growth factor receptor Kit (Homo sapiens), P10721 [V560G]", "sequence (P10721 whole entry V560G)": "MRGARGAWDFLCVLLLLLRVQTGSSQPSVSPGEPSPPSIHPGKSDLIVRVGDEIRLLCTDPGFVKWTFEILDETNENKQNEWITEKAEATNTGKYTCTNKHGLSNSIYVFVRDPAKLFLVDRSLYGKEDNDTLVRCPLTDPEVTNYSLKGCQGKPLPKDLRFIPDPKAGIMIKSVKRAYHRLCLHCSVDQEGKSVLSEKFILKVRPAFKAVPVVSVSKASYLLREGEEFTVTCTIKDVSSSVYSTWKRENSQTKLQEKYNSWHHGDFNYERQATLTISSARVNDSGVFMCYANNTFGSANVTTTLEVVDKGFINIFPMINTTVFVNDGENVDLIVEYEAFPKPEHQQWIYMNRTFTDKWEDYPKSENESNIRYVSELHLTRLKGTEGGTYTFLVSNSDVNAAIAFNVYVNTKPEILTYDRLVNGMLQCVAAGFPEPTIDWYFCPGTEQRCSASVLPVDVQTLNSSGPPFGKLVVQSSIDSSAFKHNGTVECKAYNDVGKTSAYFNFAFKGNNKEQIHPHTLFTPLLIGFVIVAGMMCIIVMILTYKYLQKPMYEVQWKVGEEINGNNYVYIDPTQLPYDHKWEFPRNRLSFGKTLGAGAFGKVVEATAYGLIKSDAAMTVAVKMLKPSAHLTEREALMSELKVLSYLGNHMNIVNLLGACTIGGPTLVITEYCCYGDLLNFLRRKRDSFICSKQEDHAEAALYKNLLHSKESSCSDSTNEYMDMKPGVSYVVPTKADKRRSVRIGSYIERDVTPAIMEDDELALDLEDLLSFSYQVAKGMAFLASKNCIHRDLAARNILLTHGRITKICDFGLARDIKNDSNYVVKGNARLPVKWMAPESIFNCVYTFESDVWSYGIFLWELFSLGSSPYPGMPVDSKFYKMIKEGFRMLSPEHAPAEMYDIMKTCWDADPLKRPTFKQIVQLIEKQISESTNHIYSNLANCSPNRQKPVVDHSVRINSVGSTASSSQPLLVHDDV", "assay": "Inhibition of recombinant human c-Kit V560G mutant (544 to end residues) assessed as residual activity at 10 uM using GGMEDIYFEFMGGKKK as substrate measured after 40 mins in presence of [gamma33P]ATP by scintillation counting method"}, "[7]": {"test_system": "Hepatocyte growth factor receptor (Homo sapiens), P08581 [Y1230D]", "assay": "Inhibition of recombinant human MET A1209G/V1290L/Y1248D mutant (974 to end residues) assessed as residual activity at 10 uM using KKKGQEEEYVFIE as substrate measured after 40 mins in presence of [gamma33P]ATP by scintillation counting method"}, "[8]": {"test_system": "HepG2", "assay": "cells", "conditions": "Homo sapiens, HepG2, 72 h"}, "[9]": {"molecular_target": "Proto-oncogene tyrosine-protein kinase receptor Ret (Homo sapiens) (UniProt P07949)", "assay": "Inhibition of human Ret (658 to end residues) using KKKSPGEYVNIEFG as substrate measured after 40 mins in presence of [gamma33P]ATP by scintillation counting method", "parameters": "scale not given: the % may be the effect or the level left"}, "[10]": {"test_system": "HCT-116", "assay": "Induction of apoptosis in human HCT116 cells assessed as increase in cleaved PARP expression up to 200 nM measured after 48 hrs by Western blot analysis", "format": "functional, cell-based"}, "[11]": {"molecular_target": "AP2-associated protein kinase 1 (Homo sapiens) (UniProt Q2M2I8)", "sequence (Q2M2I8 whole entry, looked up)": "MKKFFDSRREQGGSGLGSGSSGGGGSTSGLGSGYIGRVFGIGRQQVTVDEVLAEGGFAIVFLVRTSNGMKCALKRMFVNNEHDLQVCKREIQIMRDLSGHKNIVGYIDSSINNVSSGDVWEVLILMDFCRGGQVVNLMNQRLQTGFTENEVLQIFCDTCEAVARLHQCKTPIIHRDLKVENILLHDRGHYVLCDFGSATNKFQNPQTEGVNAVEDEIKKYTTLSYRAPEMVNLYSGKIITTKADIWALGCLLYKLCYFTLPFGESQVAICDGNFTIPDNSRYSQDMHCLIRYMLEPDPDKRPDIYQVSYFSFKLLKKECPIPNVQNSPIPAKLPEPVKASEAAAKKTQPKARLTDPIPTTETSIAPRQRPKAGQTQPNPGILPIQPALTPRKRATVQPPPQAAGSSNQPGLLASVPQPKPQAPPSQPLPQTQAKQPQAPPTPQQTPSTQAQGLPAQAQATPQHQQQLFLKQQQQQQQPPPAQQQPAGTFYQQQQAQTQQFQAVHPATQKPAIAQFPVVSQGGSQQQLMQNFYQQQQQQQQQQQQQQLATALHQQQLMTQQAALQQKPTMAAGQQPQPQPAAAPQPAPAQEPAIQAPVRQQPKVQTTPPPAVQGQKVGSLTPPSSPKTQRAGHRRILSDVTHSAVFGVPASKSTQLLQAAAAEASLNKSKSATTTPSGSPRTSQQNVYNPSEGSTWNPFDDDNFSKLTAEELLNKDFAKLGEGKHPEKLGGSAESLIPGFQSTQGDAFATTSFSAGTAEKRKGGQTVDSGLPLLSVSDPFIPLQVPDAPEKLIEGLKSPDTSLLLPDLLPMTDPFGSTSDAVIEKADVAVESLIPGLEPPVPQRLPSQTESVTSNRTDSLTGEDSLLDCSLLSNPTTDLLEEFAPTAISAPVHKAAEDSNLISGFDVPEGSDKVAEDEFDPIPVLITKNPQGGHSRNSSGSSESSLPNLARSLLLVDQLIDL", "assay": "Inhibition of human AAK1 assessed as residual activity at 10 uM using peptide substrate measured after 120 mins in presence of [gamma33P]ATP by scintillation counting method"}, "[12]": {"molecular_target": "5'-AMP-activated protein kinase catalytic subunit alpha-1 (Homo sapiens) (UniProt Q13131)", "assay": "Inhibition of recombinant full-length human AMPKalpha1 assessed as residual activity at 10 uM using AMARAASAAALARRR as substrate measured after 40 mins in presence of [gamma33P]ATP by scintillation counting method"}, "[13]": {"molecular_target": "Phosphatidylinositol 4-phosphate 5-kinase type-1 alpha (Homo sapiens) (UniProt Q99755)", "assay": "Inhibition of recombinant full-length human PIP5K1alpha assessed as residual activity at 10 uM using phosphatidylinositol 4-phosphate as substrate measured after 40 mins by HTRF assay"}, "[14]": {"assay": "Toxicity in nude BALB/c mouse xenografted with human HCT116 cells assessed as change in body weight at 40 mg/kg, po administered once daily for 4 weeks measured every 3 days during compound dosing", "format": "organism-based", "conditions": "in vivo"}, "[15]": {"species": "Homo sapiens", "assay": "Inhibition of recombinant human MARK1 T20S mutant (2 to end residues) assessed as residual activity at 10 uM using KKKVSRSGLYRSPSMPENLNRPR as substrate measured after 40 mins in presence of [gamma33P]ATP by scintillation counting method"}, "[16]": {"test_system": "Proto-oncogene tyrosine-protein kinase receptor Ret (Homo sapiens), P07949 [V804M]", "assay": "Inhibition of human Ret V804M mutant (658 to end residues) using […] as substrate measured after 40 mins in presence of [gamma33P]ATP by scintillation counting method", "parameters": "scale not given: the % may be the effect or the level left"}, "[17]": {"molecular_target": "Ephrin type-A receptor 5 (Homo sapiens) (UniProt P54756)", "sequence (P54756 whole entry, the tested form may be a part)": "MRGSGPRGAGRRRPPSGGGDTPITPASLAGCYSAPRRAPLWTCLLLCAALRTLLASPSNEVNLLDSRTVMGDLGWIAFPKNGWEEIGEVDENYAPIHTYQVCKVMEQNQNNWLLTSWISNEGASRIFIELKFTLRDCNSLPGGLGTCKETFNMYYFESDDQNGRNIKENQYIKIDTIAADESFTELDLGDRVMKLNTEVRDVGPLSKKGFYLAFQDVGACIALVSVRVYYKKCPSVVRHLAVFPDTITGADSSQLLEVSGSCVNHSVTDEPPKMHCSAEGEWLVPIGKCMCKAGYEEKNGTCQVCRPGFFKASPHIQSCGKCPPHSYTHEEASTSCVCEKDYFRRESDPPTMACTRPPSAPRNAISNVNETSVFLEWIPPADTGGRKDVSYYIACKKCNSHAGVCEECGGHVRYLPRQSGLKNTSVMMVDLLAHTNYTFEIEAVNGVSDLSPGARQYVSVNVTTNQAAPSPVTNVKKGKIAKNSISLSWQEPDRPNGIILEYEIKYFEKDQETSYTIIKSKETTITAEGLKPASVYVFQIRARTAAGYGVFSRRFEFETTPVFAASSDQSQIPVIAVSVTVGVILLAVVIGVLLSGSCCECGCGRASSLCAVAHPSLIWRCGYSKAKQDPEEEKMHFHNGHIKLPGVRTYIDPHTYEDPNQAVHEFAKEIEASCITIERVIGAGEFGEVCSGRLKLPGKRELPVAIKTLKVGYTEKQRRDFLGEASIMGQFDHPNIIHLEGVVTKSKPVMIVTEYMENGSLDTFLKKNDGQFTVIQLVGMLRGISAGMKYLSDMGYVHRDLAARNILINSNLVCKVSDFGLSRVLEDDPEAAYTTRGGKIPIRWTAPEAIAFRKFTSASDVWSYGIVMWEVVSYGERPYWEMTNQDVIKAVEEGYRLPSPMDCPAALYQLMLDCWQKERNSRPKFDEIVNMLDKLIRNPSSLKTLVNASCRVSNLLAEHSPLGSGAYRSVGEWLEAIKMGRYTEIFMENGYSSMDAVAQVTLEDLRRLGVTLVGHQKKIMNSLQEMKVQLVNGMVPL", "assay": "Inhibition of recombinant human EphA5 (655 to 956 residues) assessed as residual activity at 10 uM using poly(Glu, Tyr) 4:1 as substrate measured after 40 mins in presence of [gamma33P]ATP by scintillation counting method"}, "[18]": {"molecular_target": "Inhibitor of nuclear factor kappa-B kinase subunit beta (Homo sapiens) (UniProt O14920)", "assay": "Inhibition of recombinant full-length human IKKbeta assessed as residual activity at 10 uM using peptide substrate measured after 40 mins in presence of [gamma33P]ATP by scintillation counting method"}, "[19]": {"assay": "Toxicity in nude BALB/c mouse assessed as change in RBC level at 40 to 80 mg/kg, po once daily for 4 weeks measured post-last dose", "format": "organism-based", "conditions": "in vivo, 672 h"}, "[20]": {"molecular_target": "Serine/threonine-protein kinase SIK2 (Homo sapiens) (UniProt Q9H0K1)", "assay": "Inhibition of human SIK2 (1 to 276 residues) using KKKVSRSGLYRSPSMPENLNRPR as substrate measured after 40 mins in presence of [gamma33P]ATP by scintillation counting method", "parameters": "scale not given: the % may be the effect or the level left"}, "[21]": {"molecular_target": "Phosphorylase b kinase gamma catalytic chain, skeletal muscle/heart isoform (Homo sapiens) (UniProt Q16816)", "assay": "Inhibition of recombinant full-length human PhKgamma1 assessed as residual activity at 10 uM using KKLNRTLSFAEPG as substrate measured after 120 mins in presence of [gamma33P]ATP by scintillation counting method"}, "[22]": {"test_system": "A549", "assay": "cells", "conditions": "Homo sapiens, A549, 72 h", "description": "Antiproliferative activity against human A549 cells after 72 hrs by MTT assay"}, "[23]": {"test_system": "Serine/threonine-protein kinase TAO3 (Homo sapiens), Q9H2K8 [UNDEFINED MUTATION]", "sequence (Q9H2K8 whole entry, looked up, stated change not applied, the tested form may be a part)": "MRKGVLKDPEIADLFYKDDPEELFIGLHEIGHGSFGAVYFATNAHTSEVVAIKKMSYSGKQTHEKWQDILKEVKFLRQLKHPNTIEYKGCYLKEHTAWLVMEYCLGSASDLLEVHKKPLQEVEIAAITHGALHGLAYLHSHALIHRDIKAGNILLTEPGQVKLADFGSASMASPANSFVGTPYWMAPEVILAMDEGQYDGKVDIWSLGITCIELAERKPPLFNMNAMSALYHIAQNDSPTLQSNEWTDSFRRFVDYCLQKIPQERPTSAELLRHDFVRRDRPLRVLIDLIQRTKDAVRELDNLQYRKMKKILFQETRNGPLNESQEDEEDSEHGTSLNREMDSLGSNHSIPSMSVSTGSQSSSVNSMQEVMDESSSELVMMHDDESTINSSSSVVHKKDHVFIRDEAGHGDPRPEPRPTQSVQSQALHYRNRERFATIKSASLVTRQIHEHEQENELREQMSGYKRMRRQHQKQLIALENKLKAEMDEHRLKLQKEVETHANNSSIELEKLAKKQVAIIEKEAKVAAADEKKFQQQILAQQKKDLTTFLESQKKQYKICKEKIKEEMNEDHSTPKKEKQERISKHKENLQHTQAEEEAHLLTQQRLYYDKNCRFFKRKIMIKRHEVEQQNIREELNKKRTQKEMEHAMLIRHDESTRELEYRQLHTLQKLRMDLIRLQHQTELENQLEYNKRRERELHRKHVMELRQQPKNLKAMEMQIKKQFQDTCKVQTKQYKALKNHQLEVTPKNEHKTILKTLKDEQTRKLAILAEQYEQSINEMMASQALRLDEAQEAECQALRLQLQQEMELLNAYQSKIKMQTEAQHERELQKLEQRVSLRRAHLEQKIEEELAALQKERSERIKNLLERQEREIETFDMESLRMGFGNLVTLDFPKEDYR", "assay": "Inhibition of human TAO3 (1 to 411 residues) using myelin basic protein as substrate measured after 40 mins in presence of [gamma33P]ATP by scintillation counting method", "parameters": "scale not given: the % may be the effect or the level left"}, "[24]": {"molecular_target": "Ribosomal protein S6 kinase alpha-6 (Homo sapiens) (UniProt Q9UK32)", "sequence (Q9UK32 whole entry)": "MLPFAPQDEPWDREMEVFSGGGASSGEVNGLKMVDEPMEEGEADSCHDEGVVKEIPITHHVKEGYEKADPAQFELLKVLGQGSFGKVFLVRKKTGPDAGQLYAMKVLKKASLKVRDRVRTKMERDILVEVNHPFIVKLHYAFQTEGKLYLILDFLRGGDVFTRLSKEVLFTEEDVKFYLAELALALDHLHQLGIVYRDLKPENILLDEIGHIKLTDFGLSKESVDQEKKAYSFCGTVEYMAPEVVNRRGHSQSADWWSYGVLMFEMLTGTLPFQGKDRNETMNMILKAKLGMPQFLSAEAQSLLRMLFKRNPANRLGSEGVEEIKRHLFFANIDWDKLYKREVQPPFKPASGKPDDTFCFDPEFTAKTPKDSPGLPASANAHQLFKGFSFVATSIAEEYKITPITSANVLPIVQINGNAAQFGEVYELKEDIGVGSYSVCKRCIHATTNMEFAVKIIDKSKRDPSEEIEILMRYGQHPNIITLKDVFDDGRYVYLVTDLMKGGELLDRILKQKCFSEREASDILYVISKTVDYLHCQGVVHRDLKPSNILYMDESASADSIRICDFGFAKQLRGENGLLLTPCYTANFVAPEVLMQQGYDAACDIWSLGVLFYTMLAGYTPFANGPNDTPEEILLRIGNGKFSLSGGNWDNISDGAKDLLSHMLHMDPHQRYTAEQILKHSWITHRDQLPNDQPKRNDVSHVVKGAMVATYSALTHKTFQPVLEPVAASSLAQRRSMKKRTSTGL", "assay": "Inhibition of recombinant full-length human Rsk4 assessed as residual activity at 10 uM using LRRASLG as substrate measured after 40 mins in presence of [gamma33P]ATP by scintillation counting method"}, "[25]": {"species": "Homo sapiens", "assay": "Inhibition of human Ros V2262A mutant (1883 to end residues) using KKKSPGEYVNIEFG as substrate measured after 40 mins in presence of [gamma33P]ATP by scintillation counting method", "parameters": "scale not given: the % may be the effect or the level left"}}, "note": "Active and inactive are the calls of the source. No cut-off for these calls is given here.", "data": [{"smiles": "Cc1cc(C)c(CNc2nc(Cl)nc3c2ncn3C2CCCC2)c(=O)[nH]1", "values": [{"measurement": "Activity", "setting": "[1]", "value": 117, "unit": "%"}, {"measurement": "Activity", "setting": "[2]", "value": 93.5, "unit": "%"}, {"measurement": "Activity", "setting": "[3]", "value": 107, "unit": "%"}, {"measurement": "Activity", "setting": "[4]", "value": 102, "unit": "%"}, {"measurement": "Activity", "setting": "[5]", "value": 98, "unit": "%"}, {"measurement": "Activity", "setting": "[6]", "value": 95.5, "unit": "%"}, {"measurement": "Activity", "setting": "[7]", "value": 102, "unit": "%"}, {"measurement": "IC50", "setting": "[8]", "value": 80, "unit": "nM"}, {"measurement": "Activity", "setting": "[9]", "value": 100, "unit": "%"}, {"measurement": "Activity", "setting": "[10]", "value": "Active"}, {"measurement": "Activity", "setting": "[11]", "value": 105, "unit": "%"}, {"measurement": "Activity", "setting": "[12]", "value": 120, "unit": "%"}, {"measurement": "Activity", "setting": "[13]", "value": 100, "unit": "%"}, {"measurement": "Activity", "setting": "[14]", "value": "Non-Toxic"}, {"measurement": "Activity", "setting": "[15]", "value": 112, "unit": "%"}, {"measurement": "Activity", "setting": "[16]", "value": 106, "unit": "%"}, {"measurement": "Activity", "setting": "[17]", "value": 99, "unit": "%"}, {"measurement": "Activity", "setting": "[18]", "value": 102, "unit": "%"}, {"measurement": "Activity", "setting": "[19]", "value": "Non-Toxic"}, {"measurement": "Activity", "setting": "[20]", "value": 97, "unit": "%"}, {"measurement": "Activity", "setting": "[21]", "value": 104, "unit": "%"}, {"measurement": "IC50", "setting": "[22]", "value": 100, "unit": "nM"}, {"measurement": "Activity", "setting": "[23]", "value": 97, "unit": "%"}, {"measurement": "Activity", "setting": "[24]", "value": 98.5, "unit": "%"}, {"measurement": "Activity", "setting": "[25]", "value": 102, "unit": "%"}]}]}
